From patent US20250388571A1, “AMP-ACTIVATED PROTEIN KINASE MODULATOR COMPOUNDS AND USES THEREOF” (Biolexis Therapeutics, Inc., priority 2024, published 2025)

Tested on: AMPK signaling in human liver cells
Test: Western blot assay, human liver cells (Biological Example 1)
Type: cell-based
Procedure: After treatment, cells were analyzed using a glucose uptake assay and a western blot assay for human skeletal myoblasts, human cardiomyocytes cells, human hepatocytes-THLE-2 cells, preadipocyte HWP-c cells.
Samples for immunoblotting studies were prepared for electrophoresis by adding in a final concentration of 1× Laemmli loading buffer (supplemented with 5% 2-mercaptoethanol). Samples were then electrophorized by SDS-PAGE (4-15% or 4-20% Criterion TGX Precast gel, Bio-Rad) at a constant voltage within the range of 140V. Proteins were transferred to a nitrocellulose membrane (Bio-Rad) using the Trans-Blot Turbo transfer system (Bio-Rad). Membranes were blocked with 5% BSA in TBST for a minimum of 1 hour at room temperature before incubating with the following primary antibodies: • Phospho-AMPKα (Thr172) (40H9) Rabbit mAb (CST, cat no: 2535S), • AMPKα Antibody (CST, cat no: 2532S) • Phospho-Raptor (Ser792) Antibody (CST, cat no: 2083S) • Raptor (24C12) Rabbit mAb (CST, cat no: 2280S) • Phospho-Acetyl-CoA Carboxylase (Ser79) Antibody (CST, cat no: 3661S) • Acetyl-CoA Carboxylase Antibody (CST, cat no: 3662S) • AMPKα2 Antibody (CST, cat no: 2757S) • AMPKβ1 antibody (CST, cat no: 12063) • AMPKβ2 Antibody (CST, CST, cat no: 4148S) • AMPKγ3 Antibody (CST, cat no: 2550S).

## O=c1[nH]c(-c2c[nH]c3cc(F)c(-c4ccc(C5(O)CCC5)cc4)c(F)c23)no1 [Compound I-11, 3-(4,6-difluoro-5-(4-(1-hydroxycyclobutyl)phenyl)-1H-indol-3-yl)-1,2,4-oxadiazol-5(4H)-one]
  AMPK signaling activation: dose-dependent manner
